In US11299458B2, “Crystalline compounds” (OTSUKA AMERICA PHARMACEUTICAL, INC., priority 2015, dated 2022):
“And” between values parts separate entries of the source, which are not always exact repeats. Equal values may be shown once.

Assays:
Assay type in all cases: physicochemical
[1] = Dynamic vapor sorption/desorption isotherm (moisture balance); details: 25° C.
Source text: Based on the dynamic vapor sorption/desorption data collected (FIG. 3), Crystalline Form A obtained is a non-hygroscopic material.
Data acquisition parameters for dynamic vapor sorption/desorption isotherm: […]

[2] = Accelerated stress conditions (relative humidity stress), solid form by XRPD; details: two weeks
Procedure: Relative Humidity Stress: Solids are stored at approximately 40° C./75% RH condition for a measured time period by placing the solids into a vial inside a sealed temperature/humidity chamber at the controlled condition. Samples are analyzed after removal from the stress environment.
Crystalline Forms A, B, and C are exposed to accelerated stress conditions for two weeks (Table 18 below). […] Crystalline Form C is metastable at this condition.
Experimental: Relative Humidity Stress
The following relative humidity jars (saturated salt solutions are used to generate desired relative humidity) are utilized: 75% RH (NaCl) and 56% RH (NaBr) (Nyqvist, H., Int. J. Pharm. Tech. &Prod. Mfr. 1983, 4 (2), 47-48).

[3] = Solution calorimetry (SolCal), heats of solution in methanol; details: methanol, 25° C., hydrochloride
Procedure: For each test, two heats of solution are obtained—one calculated using a calibration preceding the sample analysis and one calculated using a calibration following the sample analysis. Clear solutions are observed after each test.
Solution calorimetry is performed using a Thermometric 2225 Precision Solution calorimeter, a semi-adiabatic calorimeter. Solution calorimeter System v.1.2 software is used. Samples are weighed into glass crushing ampoules and are sealed using silicone rubber plugs and hot wax. Experiments are carried out in 100 mL of methanol at 25° C. The measurement of the heats of solution of the samples is both preceded and followed by calibrations using an internal heater. The heats of solution are calculated using dynamic of calibration model.

With Cl.c1ccc2cc([C@]34CNC[C@H]3C4)ccc2c1 [Crystalline Form A, (1R,5S)-1-(naphthalen-2-yl)-3-azabicyclo[3.1.0]hexane hydrochloride] the “weight loss upon initial equilibration at 5% RH” value [1] was 0.03%, the “hygroscopicity based on dynamic vapor sorption/desorption data” value ([1]; 5% to 95% RH) was “non-hygroscopic” and the “weight gain from 5% to 95% RH” value ([1]; sorption) was 0.10%. For the same compound, the Weight % chg ([1]; desorption, Samp RH 4.95%) was −0.032 % chg, the Weight % chg ([1]; desorption, Samp RH 15.20%) was −0.025 % chg and the Weight % chg ([1]; desorption, Samp RH 25.12%) was −0.021 % chg. It also gave a Weight % chg ([1]; desorption, Samp RH 35.13%) of −0.016 % chg, a Weight % chg ([1]; desorption, Samp RH 45.09%) of −0.013 % chg and a Weight % chg ([1]; desorption, Samp RH 55.08%) of −0.007 % chg. The Weight % chg ([1]; desorption, Samp RH 64.96%) was 0.003 % chg, the Weight % chg ([1]; desorption, Samp RH 75.28%) was 0.019 % chg and the Weight % chg ([1]; desorption, Samp RH 85.08%) was 0.037 % chg. It also gave a Weight % chg ([1]; sorption, Samp RH 5.06%) of −0.034 % chg, a Weight % chg ([1]; sorption, Samp RH 15.24%) of −0.025 % chg and a Weight % chg ([1]; sorption, Samp RH 24.81%) of −0.024 % chg. For the same compound, the Weight % chg ([1]; sorption, Samp RH 34.82%) was −0.019 % chg, the Weight % chg ([1]; sorption, Samp RH 44.81%) was −0.016 % chg and the Weight % chg ([1]; sorption, Samp RH 54.86%) was −0.012 % chg. It also gave a Weight % chg ([1]; sorption, Samp RH 64.82%) of −0.005 % chg, a Weight % chg ([1]; sorption, Samp RH 74.66%) of 0.005 % chg and a Weight % chg ([1]; sorption, Samp RH 84.55%) of 0.024 % chg. The Weight % chg ([1]; sorption, Samp RH 94.54%) was 0.068 % chg, the Weight % chg ([1]; start, Samp RH 1.70%) was 0.000 % chg and the “solid form by XRPD after accelerated stress” value ([2]; 30° C./56% RH) was “remain unchanged”. The “solid form by XRPD after accelerated stress” value ([2]; 40° C./75% RH, hydrochloride) was “remain unchanged”, the “average heat of solution” value ([3]; triplicate, endothermic) was 48.618 J/g and the “average heat of solution” value ([3]; average of three replicates) was 48.618 J/g. For the same compound, the “ΔH2 (heat of solution)” value ([3]; calculated using the calibration after breaking the sample vial, single replicates) was 49.905 J/g and 50.168 J/g and 49.217 J/g, the “ΔH1 (heat of solution)” value ([3]; calculated using the calibration before breaking the sample vial, single replicates) was 48.077 J/g and 46.050 J/g and 48.293 J/g and the “ΔHmean (heat of solution)” value ([3]; mean of the two calibrations, single replicates) was 48.991 J/g and 48.109 J/g and 48.755 J/g.
